# Laboratory results as given in ChEMBL document CHEMBL1201862, “PubChem BioAssay data set” (2004).
#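 Grown in 96-well plates, cells were treated for 48 hours with each compound at five concentrations. Insufficient inhibition: endpoint recorded as highest concentration tested. GI50: concentration for 50% inhibition of growth.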 Active and inactive are the calls of the source. Cut-off read from the data, not from the text of the source: active = GI50 up to about 1.1 µM and inactive = higher.
# Experiments:
# Test in all cases: NCI tumour cell line growth inhibition, 48 h
# [1] = system: 786-0
# [2] = system: A498
# [3] = system: A549
# [4] = system: ACHN
# [5] = system: BT-549
# [6] = system: CAKI-1
# [7] = system: CCRF-CEM
# [8] = system: COLO 205
# [9] = system: DU-145
# [10] = system: EKVX
# [11] = system: HCT-116
# [12] = system: HCT-15
# [13] = system: HL-60
# [14] = system: HOP-62
# [15] = system: HOP-92
# [16] = system: HT-29
# [17] = system: Hs-578T
# [18] = system: IGROV-1
# [19] = system: K562
# [20] = system: KM12
# [21] = system: LOX IMVI
# [22] = system: M14
# [23] = system: MDA-MB-231
# [24] = system: MDA-MB-435
# [25] = system: MDA-N
# [26] = system: MOLT-4
# [27] = system: Malme-3M
# [28] = system: NCI-H226
# [29] = system: NCI-H23
# [30] = system: NCI-H460
# [31] = system: NCI-H522
# [32] = system: NCI/ADR-RES
# [33] = system: OVCAR-3
# [34] = system: OVCAR-4
# [35] = system: OVCAR-5
# [36] = system: OVCAR-8
# [37] = system: PC-3
# [38] = system: RPMI-8226
# [39] = system: RXF 393
# [40] = system: SF-268
# [41] = system: SF-295
# [42] = system: SF-539
# [43] = system: SK-MEL-28
# [44] = system: SK-MEL-2
# [45] = system: SK-MEL-5
# [46] = system: SK-OV-3
# [47] = system: SN12C
# [48] = system: SNB-19
# [49] = system: SR
# [50] = system: SW-620
# [51] = system: T47D
# [52] = system: TK-10
# [53] = system: U-251
# [54] = system: UACC-257
# [55] = system: UACC-62
# [56] = system: UO-31
# [57] = system: HCC 2998
# [58] = system: MCF7
# [59] = system: SNB-75
structure (smiles),measurement,setting,value
O=C1CCSCCC(=O)Nc2ccccc2N1,GI50,[1],> 100 µM (inactive)
same,GI50,[2],> 100 µM (inactive)
same,GI50,[3],> 100 µM (inactive)
same,GI50,[4],> 100 µM (inactive)
same,GI50,[5],> 100 µM (inactive)
same,GI50,[6],> 100 µM (inactive)
same,GI50,[7],> 100 µM (inactive)
same,GI50,[8],> 100 µM (inactive)
same,GI50,[9],> 100 µM (inactive)
same,GI50,[10],> 100 µM (inactive)
same,GI50,[11],> 100 µM (inactive)
same,GI50,[12],> 100 µM
same,GI50,[13],> 100 µM (inactive)
same,GI50,[14],> 100 µM (inactive)
same,GI50,[15],> 100 µM (inactive)
same,GI50,[16],> 100 µM (inactive)
same,GI50,[17],88.3 µM (inactive)
same,GI50,[18],> 100 µM (inactive)
same,GI50,[19],> 100 µM (inactive)
same,GI50,[20],> 100 µM (inactive)
same,GI50,[21],> 100 µM (inactive)
same,GI50,[22],> 100 µM (inactive)
same,GI50,[23],> 100 µM (inactive)
same,GI50,[24],> 100 µM (inactive)
same,GI50,[25],> 100 µM (inactive)
same,GI50,[26],> 100 µM (inactive)
same,GI50,[27],> 100 µM (inactive)
same,GI50,[28],> 100 µM (inactive)
same,GI50,[29],> 100 µM (inactive)
same,GI50,[30],> 100 µM (inactive)
same,GI50,[31],> 100 µM (inactive)
same,GI50,[32],> 100 µM (inactive)
same,GI50,[33],> 100 µM (inactive)
same,GI50,[34],> 100 µM (inactive)
same,GI50,[35],> 100 µM (inactive)
same,GI50,[36],> 100 µM (inactive)
same,GI50,[37],> 100 µM (inactive)
same,GI50,[38],> 100 µM (inactive)
same,GI50,[39],> 100 µM (inactive)
same,GI50,[40],> 100 µM (inactive)
same,GI50,[41],> 100 µM (inactive)
same,GI50,[42],> 100 µM (inactive)
same,GI50,[43],> 100 µM (inactive)
same,GI50,[44],> 100 µM (inactive)
same,GI50,[45],> 100 µM (inactive)
same,GI50,[46],> 100 µM (inactive)
same,GI50,[47],> 100 µM (inactive)
same,GI50,[48],> 100 µM (inactive)
same,GI50,[49],> 100 µM (inactive)
same,GI50,[50],> 100 µM (inactive)
same,GI50,[51],> 100 µM (inactive)
same,GI50,[52],> 100 µM (inactive)
same,GI50,[53],> 100 µM (inactive)
same,GI50,[54],> 100 µM (inactive)
same,GI50,[55],> 100 µM (inactive)
same,GI50,[56],> 100 µM (inactive)
COc1cccc(C=C2N=C(c3ccccc3)N(n3c(-c4ccccc4)nc4ccccc4c3=O)C2=O)c1,GI50,[1],83.4 µM (inactive)
same,GI50,[2],67.9 µM (inactive)
same,GI50,[3],43.7 µM (inactive)
same,GI50,[4],42.3 µM (inactive)
same,GI50,[5],> 100 µM (inactive)
same,GI50,[6],41.2 µM (inactive)
same,GI50,[7],38.7 µM (inactive)
same,GI50,[8],54 µM (inactive)
same,GI50,[9],83.8 µM (inactive)
same,GI50,[10],43.6 µM (inactive)
same,GI50,[57],64.6 µM (inactive)
same,GI50,[11],46 µM (inactive)
same,GI50,[12],54.3 µM
same,GI50,[13],25.1 µM (inactive)
same,GI50,[14],85.1 µM (inactive)
same,GI50,[16],40.9 µM (inactive)
same,GI50,[17],48.2 µM (inactive)
same,GI50,[18],30.1 µM (inactive)
same,GI50,[19],68.9 µM (inactive)
same,GI50,[20],37.9 µM (inactive)
same,GI50,[21],62.5 µM (inactive)
same,GI50,[22],45.1 µM (inactive)
same,GI50,[58],52 µM (inactive)
same,GI50,[23],57.9 µM (inactive)
same,GI50,[24],> 100 µM (inactive)
same,GI50,[25],48.3 µM (inactive)
same,GI50,[26],30.3 µM (inactive)
same,GI50,[27],> 100 µM (inactive)
same,GI50,[28],> 100 µM (inactive)
same,GI50,[29],71.9 µM (inactive)
same,GI50,[30],35.2 µM (inactive)
same,GI50,[31],18.3 µM (inactive)
same,GI50,[36],44.5 µM (inactive)
same,GI50,[37],41.2 µM (inactive)
same,GI50,[38],40.2 µM (inactive)
same,GI50,[40],56.4 µM (inactive)
same,GI50,[41],57.4 µM (inactive)
same,GI50,[42],43.2 µM (inactive)
same,GI50,[43],63.2 µM (inactive)
same,GI50,[45],34.8 µM (inactive)
same,GI50,[46],> 100 µM (inactive)
same,GI50,[47],57.8 µM (inactive)
same,GI50,[48],64.6 µM (inactive)
same,GI50,[59],44.4 µM (inactive)
same,GI50,[49],33.5 µM (inactive)
same,GI50,[50],74.3 µM (inactive)
same,GI50,[51],26.5 µM (inactive)
same,GI50,[52],> 100 µM (inactive)
same,GI50,[54],30.3 µM (inactive)
same,GI50,[55],26.2 µM (inactive)
same,GI50,[56],40.1 µM (inactive)
CCCCCCc1nn2c(-c3ccc(C)cc3)nnc2s1,GI50,[1],> 100 µM (inactive)
same,GI50,[2],> 100 µM (inactive)
same,GI50,[3],> 100 µM (inactive)
same,GI50,[4],> 100 µM (inactive)
same,GI50,[5],> 100 µM (inactive)
same,GI50,[6],> 100 µM (inactive)
same,GI50,[8],> 100 µM (inactive)
same,GI50,[9],> 100 µM (inactive)
same,GI50,[10],76.9 µM (inactive)
same,GI50,[11],49.2 µM (inactive)
same,GI50,[12],> 100 µM
same,GI50,[14],> 100 µM (inactive)
same,GI50,[16],> 100 µM (inactive)
same,GI50,[17],> 100 µM (inactive)
same,GI50,[19],> 100 µM (inactive)
same,GI50,[20],> 100 µM (inactive)
same,GI50,[22],> 100 µM (inactive)
same,GI50,[58],> 100 µM (inactive)
same,GI50,[23],> 100 µM (inactive)
same,GI50,[24],> 100 µM (inactive)
same,GI50,[25],> 100 µM (inactive)
same,GI50,[26],46.2 µM (inactive)
same,GI50,[29],> 100 µM (inactive)
same,GI50,[30],80 µM (inactive)
same,GI50,[31],67.3 µM (inactive)
same,GI50,[32],> 100 µM (inactive)
same,GI50,[33],> 100 µM (inactive)
same,GI50,[34],> 100 µM (inactive)
same,GI50,[35],> 100 µM (inactive)
same,GI50,[36],68.9 µM (inactive)
same,GI50,[37],56.1 µM (inactive)
same,GI50,[38],> 100 µM (inactive)
same,GI50,[39],77.8 µM (inactive)
same,GI50,[40],> 100 µM (inactive)
same,GI50,[41],> 100 µM (inactive)
same,GI50,[42],81.8 µM (inactive)
same,GI50,[43],> 100 µM (inactive)
same,GI50,[44],> 100 µM (inactive)
same,GI50,[45],77.1 µM (inactive)
same,GI50,[46],> 100 µM (inactive)
same,GI50,[47],> 100 µM (inactive)
same,GI50,[48],> 100 µM (inactive)
same,GI50,[59],> 100 µM (inactive)
same,GI50,[50],> 100 µM (inactive)
same,GI50,[51],58.7 µM (inactive)
same,GI50,[52],> 100 µM (inactive)
same,GI50,[53],32.6 µM (inactive)
same,GI50,[54],42.1 µM (inactive)
same,GI50,[55],> 100 µM (inactive)
same,GI50,[56],> 100 µM (inactive)
